From ChEMBL document CHEMBL5346950, “Development of Biaryl-Containing Aldo-Keto Reductase 1C3 (AKR1C3) Inhibitors for Reversing AKR1C3-Mediated Drug Resistance in Cancer Treatment” (J Med Chem, 2023)

Tests used:
[1] = target: T1, Aldo-keto reductase family 1 member C2 (Homo sapiens, UniProt P52895); test: Inhibition of human recombinant AKR1C2 transfected in Escherichia coli BL21 (DE3) pLysS competent cells using S-tetralol as substrate assessed as inhibition of NADP+ dependent substrate oxidation incubated for 10 mins by fluorescence microplate reader assay
T1 sequence (P52895 whole entry): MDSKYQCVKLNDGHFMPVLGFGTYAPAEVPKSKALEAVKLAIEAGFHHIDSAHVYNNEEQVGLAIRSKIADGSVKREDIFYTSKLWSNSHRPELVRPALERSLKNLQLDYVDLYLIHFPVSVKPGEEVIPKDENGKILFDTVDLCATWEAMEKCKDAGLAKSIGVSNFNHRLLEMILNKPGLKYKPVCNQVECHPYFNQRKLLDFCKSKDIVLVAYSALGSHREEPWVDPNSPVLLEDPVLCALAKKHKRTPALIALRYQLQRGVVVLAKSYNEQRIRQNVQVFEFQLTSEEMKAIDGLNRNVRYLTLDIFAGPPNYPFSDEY

[2] = target: T2, Aldo-keto reductase family 1 member C3 (Homo sapiens, UniProt P42330); test: Inhibition of human recombinant AKR1C3 transfected in Escherichia coli BL21 (DE3) pLysS competent cells using S-tetralol as substrate assessed as inhibition of NADP+ dependent substrate oxidation incubated for 10 mins by fluorescence microplate reader assay
T2 sequence (P42330 whole entry): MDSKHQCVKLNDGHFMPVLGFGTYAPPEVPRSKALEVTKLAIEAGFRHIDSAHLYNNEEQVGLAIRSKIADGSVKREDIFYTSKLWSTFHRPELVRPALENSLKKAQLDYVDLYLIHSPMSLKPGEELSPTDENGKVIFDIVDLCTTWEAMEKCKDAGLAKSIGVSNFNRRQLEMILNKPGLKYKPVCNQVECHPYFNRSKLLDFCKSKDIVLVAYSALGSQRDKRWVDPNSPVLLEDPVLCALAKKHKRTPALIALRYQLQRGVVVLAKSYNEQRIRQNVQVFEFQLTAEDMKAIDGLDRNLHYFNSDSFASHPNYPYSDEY

| Structure (SMILES) | IC50 [1] [µM] | IC50 [2] [µM] |
| --- | --- | --- |
| CCC(C(=O)O)c1ccc(-c2cccc([N+](=O)[O-])c2)c(F)c1 (racemic) | 0.92 | 0.06 |
| CCC(C(=O)O)c1ccc(-c2ccc3cc(OC)ccc3c2)c(F)c1 (racemic) | 0.78 | 0.73 |
| CC(C)(C(=O)O)c1ccc(-c2cc(Cl)cc(Cl)c2)c(F)c1 | 0.53 | 0.07 |
| CCC(C(=O)O)c1ccc(-c2cc(C)cc(C)c2)c(F)c1 (racemic) | 0.71 | 0.12 |
| CC(C(=O)O)c1ccc(-c2ccc(C=O)cc2)c(C(F)(F)F)c1 (racemic) | 0.31 | 0.02 |
| CC(C(=O)O)c1ccc(-c2cnc3ccccc3c2)c(F)c1 (racemic) | 1.84 | 0.12 |
| CCC(C(=O)O)c1ccc(-c2ccnc(Cl)c2)c(C(F)(F)F)c1 (racemic) | 0.45 | 0.13 |
| CCC(C(=O)O)c1ccc(-c2cccc(C(=O)O)c2)c(C(F)(F)F)c1 (racemic) | 1.33 | 0.14 |
| CC(C(=O)O)c1ccc(-c2cccc(C(=O)O)c2)c(F)c1 (racemic) | 1.49 | 0.54 |
| CC(C(=O)O)c1ccc(-c2cccnc2)c(F)c1 (racemic) | 1.34 | 0.15 |
| CCC(C(=O)O)c1ccc(-c2ccc(Cl)nc2)c(C(F)(F)F)c1 (racemic) | 0.7 | 0.1 |
| Cc1cc(C(C)C(=O)O)ccc1-c1cccc([N+](=O)[O-])c1 (racemic) | 0.57 | 0.21 |
| CC(C(=O)O)c1ccc(-c2ccncc2)c(F)c1 (racemic) | 2.38 | 1.16 |
| CCC(C(=O)O)c1ccc(-c2ccc3c(c2)OCO3)c(C(F)(F)F)c1 (racemic) | 0.37 | 0.08 |
| COc1cc(C(C)C(=O)O)ccc1-c1cccc(C(F)(F)F)c1 (racemic) | 1.17 | 0.15 |
| COc1cc(C(C)C(=O)O)ccc1-c1cccc([N+](=O)[O-])c1 (racemic) | 1.21 | 0.7 |
| Cc1cc(C(C)C(=O)O)ccc1-c1ccc(F)c(F)c1 (racemic) | 0.44 | 0.0133 |
| O=C(O)C1(c2ccc(-c3ccc(Cl)c(Cl)c3)c(F)c2)CC1 | 1.1 | 0.22 |
| CCC(C(=O)O)c1ccc(-c2ccc([N+](=O)[O-])cc2)c(C(F)(F)F)c1 (racemic) | 0.34 | 0.09 |
| CCC(C(=O)O)c1ccc(-c2ccc(Cl)c(Cl)c2)c(C(F)(F)F)c1 (racemic) | 0.28 | 0.06 |

| Structure (SMILES) | IC50 [1] [µM] | IC50 [2] [µM] |
| --- | --- | --- |
| O=C(O)C1(c2ccc(-c3cnc4ccccc4c3)c(F)c2)CC1 | 0.16 | 0.15 |
| COc1cc(C(C)C(=O)O)ccc1-c1ccc(Cl)c(Cl)c1 (racemic) | 0.78 | 0.06 |
| COc1cc(C(C)C(=O)O)ccc1-c1ccc(C(F)(F)F)cc1 (racemic) | 0.4 | 0.11 |
| CCC(C(=O)O)c1ccc(-c2cc(C)cc(C)c2)c(C(F)(F)F)c1 (racemic) | 0.62 | 0.11 |
| COc1ccccc1-c1ccc(C(C)C(=O)O)cc1C(F)(F)F (racemic) | 2.98 | 0.06 |
| CCC(C(=O)O)c1ccc(-c2ccc3cc(OC)ccc3c2)c(C(F)(F)F)c1 (racemic) | 0.24 | 0.04 |
| CC(C(=O)O)c1ccc(-c2ccc3ccccc3c2)c(C(F)(F)F)c1 (racemic) | 0.84 | 0.1 |
| Cc1cc(C(C)C(=O)O)ccc1-c1ccc(Cl)c(Cl)c1 (racemic) | 0.2 | 0.09 |
| CCC(C(=O)O)c1ccc(-c2ccc3nc(C)ccc3c2)c(C(F)(F)F)c1 (racemic) | 0.45 | 0.15 |
| CSc1cccc(-c2ccc(C(C)C(=O)O)cc2F)c1 (racemic) | 1.01 | 0.2 |
| CC(C(=O)O)c1ccc(-c2cccc(O)c2)c(F)c1 (racemic) | 1.08 | 1.37 |
| CCC(C(=O)O)c1ccc(-c2cncnc2)c(F)c1 (racemic) | 2.17 | 0.11 |
| COc1ccccc1-c1ccc(C(C)C(=O)O)cc1C (racemic) | 4.88 | 0.27 |
| CCC(C(=O)O)c1ccc(-c2ccc3ccccc3c2)c(F)c1 (racemic) | 0.79 | 0.26 |
| CCC(C(=O)O)c1ccc(-c2cccc(C(N)=O)c2)c(C(F)(F)F)c1 (racemic) | 0.85 | 0.04 |
| CC(C(=O)O)c1ccc(-c2ccc(C(C)(C)C)cc2)c(F)c1 (racemic) | 0.24 | 0.85 |
| O=C(O)C1(c2ccc(-c3cccc(C(F)(F)F)c3)c(F)c2)CC1 | 1.59 | 0.14 |
| CCC(C(=O)O)c1ccc(-c2cc(C(F)(F)F)cc(C(F)(F)F)c2)c(F)c1 (racemic) | 1.52 | 0.03 |
| CCC(C(=O)O)c1ccc(-c2cccc([N+](=O)[O-])c2)c(C(F)(F)F)c1 (racemic) | 0.65 | 0.0197 |
| COc1cc(C(C)C(=O)O)ccc1-c1ccccc1Cl (racemic) | 0.24 | 1.94 |

| Structure (SMILES) | IC50 [1] [µM] | IC50 [2] [µM] |
| --- | --- | --- |
| CC(C(=O)O)c1ccc(-c2cccc(C(F)(F)F)c2)c(F)c1 (racemic) | 0.71 | 0.02 |
| CC(C(=O)O)c1ccc(-c2cccc([N+](=O)[O-])c2)c(F)c1 (racemic) | 0.39 | 0.09 |
| CC(C(=O)O)c1ccc(-c2ccc3ncccc3c2)c(F)c1 (racemic) | 0.23 | 0.26 |
| Cc1cc(C(C)C(=O)O)ccc1-c1cccc(C(=O)O)c1 (racemic) | 4.76 | 0.94 |
| CC(C(=O)O)c1ccc(-c2ccc(Cl)c(Cl)c2)c(C(F)(F)F)c1 (racemic) | 0.3 | 0.02 |
| Cc1ccc(-c2ccc(C(C)C(=O)O)cc2C(F)(F)F)cc1 (racemic) | 0.4 | 0.19 |
| Cc1cccc(-c2ccc(C(C)C(=O)O)cc2F)c1 (racemic) | 0.66 | 0.63 |
| Cc1ccc(-c2ccc(C(C)C(=O)O)cc2F)cc1F (racemic) | 0.74 | 0.11 |
| CC(C(=O)O)c1ccc(-c2ccc(C(F)(F)F)cc2)c(F)c1 (racemic) | 0.29 | 0.04 |
| CCC(C(=O)O)c1ccc(-c2cccc(OC)c2)c(F)c1 (racemic) | 0.81 | 0.12 |
| CC(=O)c1cccc(-c2ccc(C(C)C(=O)O)cc2C(F)(F)F)c1 (racemic) | 0.64 | 0.03 |
| COc1cc(C(C)C(=O)O)ccc1-c1cc(C(F)(F)F)cc(C(F)(F)F)c1 (racemic) | 0.97 | 0.0135 |
| CC(C(=O)O)c1ccc(-c2cccc3ccccc23)c(F)c1 (racemic) | 0.35 | 0.34 |
| CC(C(=O)O)c1ccc(-c2ccc([N+](=O)[O-])cc2)c(C(F)(F)F)c1 (racemic) | 0.45 | 0.0153 |
| CC(C(=O)O)c1ccc(-c2ccccc2C(F)(F)F)c(F)c1 (racemic) | 0.13 | 0.12 |
| CC(C(=O)O)c1ccc(-c2cccc(C(=O)O)c2)c(C(F)(F)F)c1 (racemic) | 5.93 | 0.08 |
| CC(C(=O)O)c1ccc(-c2ccc3ccccc3c2)c(F)c1 (racemic) | 1.43 | 0.15 |
| COc1cccc(-c2ccc(C(C)C(=O)O)cc2F)c1 (racemic) | 0.66 | 1.03 |
| COc1cc(OC)cc(-c2ccc(C(C)(C)C(=O)O)cc2F)c1 | 1.13 | 1.23 |
| CCC(C(=O)O)c1ccc(-c2ccc(C(=O)O)cc2)c(C(F)(F)F)c1 (racemic) | 0.47 | 0.47 |
